US20230200394A1, “SELECTIVE HERBICIDES BASED ON SUBSTITUTED ISOXAZOLIN CARBOXAMIDES AND BENOXACOR” (BAYER AKTIENGESELLSCHAFT, priority 2020, published 2023)

Test system: ZEAMA Sileno
Assay: Safener seed treatment; pre-emergence herbicide application, visual scoring of % crop damage in greenhouse
Format: in vivo, maize
Conditions: for HER effect [%] / HER effect + SAF [%]: crop damage, pre-emergence; for HER effect [%]: herbicide alone (no safener); for HER effect + SAF [%]: seed treated with Benoxacor 0.25 g a.i./kg seed; for Reduction [Difference]: herbicide damage without safener minus with Benoxacor 0.25 g a.i./kg seed; for Reduction [%]: reduction of herbicide damage by Benoxacor 0.25 g a.i./kg seed, relative to damage without safener
Protocol: Seed Treatment; Pre-Emergence For the safener seed treatment, sufficient seeds of the respective crops (spring wheat, TRZAS; spring barley, HORVS; maize, ZEAMA) were weighed into screw top glass bottles approximately twice the volume of the seeds. The specified safeners, formulated as wettable powder (WP) were weighed out so that the specified rates (g a.i./kg seed) would be obtained, dissolved in water (1 ml water per 10 g of seeds), and added to the seeds to produce a slurry. The bottles were capped and then placed in an overhead shaker (set at medium speed for ca. 60 minutes) so that the seeds were evenly coated with the slurry. The bottles were uncapped and the seeds were either placed on paper and dried for an interval of 3-4 hours prior to sowing, or directly sown. Seeds were placed in sandy loam soil in pots of a diameter of 7-8 cm, and covered with soil. Pre-emergence application of the specified herbicides was done subsequently, on two sets of plants: a) seed treatment with safener, as described above b) no safener treatment The herbicides were formulated as WP and was sprayed onto the soil surface as an aqueous suspension at an equivalent water application rate of 300 l/ha. After application, the test plants were kept in the greenhouse under good growth conditions. At intervals up to 4 weeks after application (=28 days after treatment; DAT), % crop damage observed on the treated plants was scored visually in comparison to control plants that had not received any safener or herbicide treatment. Values in the table below are mean values of at least 2 replicates.

[1] = HER dose 40 g a.i./ha, assessment 26 DAT
[2] = HER dose 40 g a.i./ha, assessment 14 DAT
[3] = HER dose 80 g a.i./ha, assessment 14 DAT

SMILES | HER effect [%] [1] [%] | HER effect + SAF [%] (HER dose 40 g a.i./ha, 26 DAT) | Reduction [Difference] (HER dose 40 g a.i./ha, 26 DAT) | Reduction [%] (HER dose 40 g a.i./ha, 26 DAT) | HER effect [%] [2] [%] | HER effect [%] [3] [%] | HER effect + SAF [%] (HER dose 40 g a.i./ha, 14 DAT) | HER effect + SAF [%] (HER dose 80 g a.i./ha, 14 DAT) | Reduction [Difference] (HER dose 40 g a.i./ha, 14 DAT) | Reduction [Difference] (HER dose 80 g a.i./ha, 14 DAT) | Reduction [%] (HER dose 40 g a.i./ha, 14 DAT) | Reduction [%] (HER dose 80 g a.i./ha, 14 DAT) | HER effect [%] (HER dose 80 g a.i./ha, assessment 26 DAT) | HER effect + SAF [%] (HER dose 80 g a.i./ha, 26 DAT) | Reduction [Difference] (HER dose 80 g a.i./ha, 26 DAT) | Reduction [%] (HER dose 80 g a.i./ha, 26 DAT)
C=CC1(C(=O)NC2COC(C(=O)OC)C2)CC(c2cc(F)cc(F)c2)=NO1 (mixture of isomers) [Example 1.68] | 95 | 60 | 35 | 37 | – | – | – | – | – | – | – | – | – | – | – | –
CC1(C(=O)NC2C=CC(C(=O)O)C2)CC(c2cc(F)cc(F)c2)=NO1 (stereo not shown) [Example 1.36] | – | – | – | – | 60 | 83 | 40 | 60 | 20 | 23 | 33 | 28 | – | – | – | –
C=CC1(C(=O)NC2C=CC(C(=O)OC)C2)CC(c2cc(F)cc(F)c2)=NO1 (stereo not shown) [Example 1.26] | 50 | 5 | 45 | 90 | 25 | 70 | 5 | 35 | 20 | 35 | 80 | 50 | 70 | 30 | 40 | 57
